Measurements as given in ChEMBL document CHEMBL1201862, “PubChem BioAssay data set” (2004).
Calls of active or inactive are those of the source.

What was measured:
[1] = molecular target: Long-chain-fatty-acid--AMP ligase FadD28 (Mycobacterium tuberculosis, UniProt P9WQ59); test: Fluorescence polarization aasay to screen for inhibitors that compete for the binding of FadD28 to a bisubstrate Measured in Biochemical System Using Plate Reader - 2147-01_Inhibitor_Dose_CherryPick_Activity.; format: functional, Mycobacterium tuberculosis H37Rv
[2] = microbe, parasite or virus in culture; format: functional; details: Mycobacterium tuberculosis
Beta Lactamase = Beta Lactamase (Pseudomonas aeruginosa, UniProt Q932Y6); test: BLA reporter interference, concentration series – BLA reporter cells, FRET fluorescence, artefact control for NOD2-RIPK2 interaction inhibitor project, dose response (AID 651552); format: functional, cell-based
[3] = Fluorescence-based cell-based high throughput dose response assay for inhibitors of the interaction of nucleotide-binding oligomerization domain containing 2 (NOD2) and the receptor-interacting serine-threonine kinase 2 (RIPK2).; format: functional; details: Homo sapiens
Galanin receptor type 3 = Galanin receptor type 3 (Homo sapiens, UniProt O60755); test: Fluorescence-based cell-based primary high throughput dose response assay to identify antagonists of the Galanin Receptor 3 (GalR3).; format: functional
cells = format: functional, cell-based; details: HEK-CNG
[4] = molecular target: T1, Sentrin-specific protease 1 (Homo sapiens, UniProt Q9P0U3); test: Dose response confirmation of small molecule inhibitors of the catalytic domain of the SUMO protease, SENP1 in a FRET assay.; format: functional; details: read-out: IC50_Mean
T1 sequence (Q9P0U3 whole entry): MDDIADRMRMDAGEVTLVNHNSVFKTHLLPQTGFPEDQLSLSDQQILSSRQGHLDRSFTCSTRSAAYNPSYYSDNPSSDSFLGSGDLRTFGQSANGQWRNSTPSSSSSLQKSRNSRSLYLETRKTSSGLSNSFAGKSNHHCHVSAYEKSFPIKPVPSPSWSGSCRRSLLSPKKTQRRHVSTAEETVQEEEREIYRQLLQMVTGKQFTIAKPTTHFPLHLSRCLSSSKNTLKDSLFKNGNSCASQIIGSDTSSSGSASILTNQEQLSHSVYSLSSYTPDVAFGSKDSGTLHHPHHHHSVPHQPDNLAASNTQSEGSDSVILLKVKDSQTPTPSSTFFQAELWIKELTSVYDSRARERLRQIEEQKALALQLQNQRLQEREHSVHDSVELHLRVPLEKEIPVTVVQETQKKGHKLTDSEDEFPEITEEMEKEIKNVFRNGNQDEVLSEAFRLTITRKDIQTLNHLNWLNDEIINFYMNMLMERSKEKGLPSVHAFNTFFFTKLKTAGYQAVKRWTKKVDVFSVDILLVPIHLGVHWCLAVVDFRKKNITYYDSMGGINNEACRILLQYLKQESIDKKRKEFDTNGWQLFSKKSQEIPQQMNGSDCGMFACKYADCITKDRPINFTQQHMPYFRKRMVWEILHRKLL

[5] = molecular target: T2, DNA repair and recombination protein RAD54-like (Homo sapiens, UniProt Q92698); test: RAD54 Holliday junction migration blockers – biochemical, fluorescence, cherry-picked samples, dose series, confirmation (AID 651657); format: functional
T2 sequence (Q92698 whole entry): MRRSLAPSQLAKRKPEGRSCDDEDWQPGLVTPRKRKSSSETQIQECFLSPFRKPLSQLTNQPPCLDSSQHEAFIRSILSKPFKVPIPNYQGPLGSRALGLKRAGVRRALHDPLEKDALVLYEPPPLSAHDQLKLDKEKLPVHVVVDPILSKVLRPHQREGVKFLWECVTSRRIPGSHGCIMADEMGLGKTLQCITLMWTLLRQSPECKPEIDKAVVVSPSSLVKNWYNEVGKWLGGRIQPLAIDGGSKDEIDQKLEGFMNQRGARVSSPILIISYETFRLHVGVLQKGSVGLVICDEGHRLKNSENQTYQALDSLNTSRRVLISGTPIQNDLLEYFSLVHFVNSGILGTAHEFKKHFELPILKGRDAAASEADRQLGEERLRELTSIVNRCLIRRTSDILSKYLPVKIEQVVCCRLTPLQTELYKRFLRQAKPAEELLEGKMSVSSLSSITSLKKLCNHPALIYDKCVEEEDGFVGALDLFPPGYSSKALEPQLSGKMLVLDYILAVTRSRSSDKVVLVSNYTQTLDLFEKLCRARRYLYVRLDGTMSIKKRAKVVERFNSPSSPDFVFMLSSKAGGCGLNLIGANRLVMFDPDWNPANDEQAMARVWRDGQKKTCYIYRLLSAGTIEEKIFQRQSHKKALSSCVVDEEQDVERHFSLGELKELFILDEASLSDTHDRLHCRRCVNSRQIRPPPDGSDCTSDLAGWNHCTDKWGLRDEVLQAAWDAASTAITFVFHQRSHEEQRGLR

[6] = molecular target: T1, Sentrin-specific protease 1; test: SENP1 catalytic domain blockers, concentration series – biochemical, kinetic FRET, dose response (AID 651697); format: functional; details: read-out: IC50_Mean
[7] = Counterscreen for activators of the function of SWI/SNF related, matrix associated, actin dependent regulator of chromatin, subfamily a, member 2 (SMARCA2, BRM): Luminescence-based cell-based high throughput dose response assay to identify non-selective compounds using the VP16 reporter assay.; format: functional
[8] = molecular target: Hepatocyte nuclear factor 4-alpha (Homo sapiens, UniProt P41235); format: functional, cell-based;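 also: biochemical luminescence-based dose-response counterscreen measuring inhibition of HNF4 dimerization, run alongside a screen for blockers of ABHD5–perilipin-5 interaction; split luciferase complementation of HNF4 fusion proteins in cell lysate measuring dimerization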
[9] = molecular target: SWI/SNF-related matrix-associated actin-dependent regulator of chromatin subfamily A member 2 (Homo sapiens, UniProt P51531); test: Luminescence-based cell-based high throughput dose response assay to identify activators of the function of SWI/SNF related, matrix associated, actin dependent regulator of chromatin, subfamily a, member 2 (SMARCA2, BRM).; format: functional
[10] = molecular target: Fructose-bisphosphate aldolase (Mycobacterium tuberculosis, UniProt P9WQA3); test: Fluorescence-based biochemical high throughput dose response assay for inhibitors of the fructose-bisphosphate aldolase (FBA) of M. tuberculosis.; format: functional
[11] = molecular target: Adenosylmethionine-8-amino-7-oxononanoate aminotransferase (Mycobacterium tuberculosis, UniProt P9WQ81); test: Mycobacterium tuberculosis BioA enzyme inhibitor Measured in Biochemical System Using Plate Reader - 2163-02_Inhibitor_Dose_CherryPick_Activity.; format: functional, Mycobacterium tuberculosis UT205
Albumin = Albumin (Bos taurus, UniProt P02769); test: Counterscreen for inhibitors of T-cell receptor (TCR)-CD3 interaction: Fluorescence-based biochemical high throughput dose response assay to identify inhibitors of T-cell receptor (TCR)-CD3 interaction using a TAMRA-labeled BSA probe.; format: functional
Beta-galactosidase = Beta-galactosidase (Escherichia coli, UniProt Q8VNN2); test: Dose response counterscreen for EBI2 assay utilizing the enzyme, b-galactosidase.; format: functional
[12] = HGIII-sPLA2 enzyme inhibition potency – biochemical, QFRET, IC50, dose response (AID 743457);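 also: green fluorescence rise as the enzyme cleaves BODIPY PC-A2 in liposomes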
[13] = molecular target: T3, Endoribonuclease toxin MazF (Escherichia coli K-12, UniProt P0AE70); test: activation of MazEF endoribonuclease cleavage – biochemical, fluorescence, single-stranded RNA substrate, uHTS hits, dose response (AID 588481); format: functional
T3 sequence (P0AE70 whole entry): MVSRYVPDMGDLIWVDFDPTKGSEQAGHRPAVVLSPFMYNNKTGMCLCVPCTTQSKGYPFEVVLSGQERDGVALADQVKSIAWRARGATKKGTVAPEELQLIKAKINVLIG

[14] = molecular target: T3, Endoribonuclease toxin MazF; test: substrate-only fluorescence increase artefacts – biochemical, single-stranded RNase substrate, counter-screen for MazEF activator project, dose response (AID 588502); format: functional
[15] = general mammalian cell viability loss – inhibitor set, cherry-pick, set 2, cytotoxicity control for miR-122 modulator project, dose response (AID 720697); format: functional, cell-based
[16] = molecular target: Tyrosyl-DNA phosphodiesterase 2 (Homo sapiens, UniProt O95551); test: potency against TDP2 phosphodiesterase activity – biochemical, epi absorbance, IC50, dose response (AID 743297)
[17] = inhibition of ARNT PAS-B/TACC3 complex formation – biochemical, AlphaScreen, cherry-picked samples, confirmation (AID 651703); format: functional, Homo sapiens;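 also: His-tagged ARNT PAS-B domain paired with GST-TACC3 E629A dimer coactivator fragment; potency of inhibitors that break up the complex and lower AlphaScreen signal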
[18] = molecular target: Peroxisome proliferator-activated receptor gamma/Nuclear receptor coactivator 2 (Homo sapiens, UniProt P37231); test: (§1) TR-FRET dose response biochemical High Throughput Screening assay for agonists of the steroid receptor coactivator 2 (SRC-2) recruitment by the peroxisome proliferator-activated receptor gamma (PPAR gamma): non-selective agonists. [Related pubchem assays: 1297, 1032 ]; format: functional
[19] = molecular target: Peroxisome proliferator-activated receptor gamma/Nuclear receptor coactivator 1 (Homo sapiens, UniProt P37231); test: as §1, with “1 (SRC-1)” for “2 (SRC-2)”, “assays (depositor defined):AID1300, AID1808, AID504735, AID631]” for “assays: 1297, 1032 ]”; format: protein assay
[20] = Counterscreen for inhibitors of Trypanosoma brucei methionyl tRNA synthetase (MetRS): Luminescence-based cell-based high throughput dose response assay to identify compounds that are cytotoxic to Jurkat human T lymphocyte cells.; format: functional
[21] = molecular target: Peroxisome proliferator-activated receptor gamma/Nuclear receptor coactivator 3 (Homo sapiens, UniProt P37231); test: as §1, with “3 (SRC-3)” for “2 (SRC-2)”, “1301 (Confirmation screen.), 1048 (Primary screen.)]” for “1297, 1032 ]”; format: functional

Sequence of Albumin (P02769 whole entry): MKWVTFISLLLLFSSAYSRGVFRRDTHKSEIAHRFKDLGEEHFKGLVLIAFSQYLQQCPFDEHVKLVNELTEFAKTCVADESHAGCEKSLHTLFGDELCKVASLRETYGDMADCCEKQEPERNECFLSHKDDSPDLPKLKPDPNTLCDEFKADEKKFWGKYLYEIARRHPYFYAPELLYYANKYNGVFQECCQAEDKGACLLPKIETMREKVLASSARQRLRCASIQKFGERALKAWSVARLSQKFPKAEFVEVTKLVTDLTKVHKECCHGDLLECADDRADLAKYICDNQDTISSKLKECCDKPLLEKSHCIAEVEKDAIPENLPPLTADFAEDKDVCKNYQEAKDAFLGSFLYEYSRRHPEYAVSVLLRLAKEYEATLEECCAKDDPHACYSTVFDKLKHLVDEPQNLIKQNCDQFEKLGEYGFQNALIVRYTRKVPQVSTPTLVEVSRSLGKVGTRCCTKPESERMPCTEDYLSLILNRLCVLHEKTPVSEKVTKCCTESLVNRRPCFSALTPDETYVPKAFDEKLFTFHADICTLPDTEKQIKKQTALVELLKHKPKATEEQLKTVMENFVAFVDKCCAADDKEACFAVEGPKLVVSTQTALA
Sequence of SWI/SNF-related matrix-associated actin-dependent regulator of chromatin subfamily A member 2 (P51531 whole entry): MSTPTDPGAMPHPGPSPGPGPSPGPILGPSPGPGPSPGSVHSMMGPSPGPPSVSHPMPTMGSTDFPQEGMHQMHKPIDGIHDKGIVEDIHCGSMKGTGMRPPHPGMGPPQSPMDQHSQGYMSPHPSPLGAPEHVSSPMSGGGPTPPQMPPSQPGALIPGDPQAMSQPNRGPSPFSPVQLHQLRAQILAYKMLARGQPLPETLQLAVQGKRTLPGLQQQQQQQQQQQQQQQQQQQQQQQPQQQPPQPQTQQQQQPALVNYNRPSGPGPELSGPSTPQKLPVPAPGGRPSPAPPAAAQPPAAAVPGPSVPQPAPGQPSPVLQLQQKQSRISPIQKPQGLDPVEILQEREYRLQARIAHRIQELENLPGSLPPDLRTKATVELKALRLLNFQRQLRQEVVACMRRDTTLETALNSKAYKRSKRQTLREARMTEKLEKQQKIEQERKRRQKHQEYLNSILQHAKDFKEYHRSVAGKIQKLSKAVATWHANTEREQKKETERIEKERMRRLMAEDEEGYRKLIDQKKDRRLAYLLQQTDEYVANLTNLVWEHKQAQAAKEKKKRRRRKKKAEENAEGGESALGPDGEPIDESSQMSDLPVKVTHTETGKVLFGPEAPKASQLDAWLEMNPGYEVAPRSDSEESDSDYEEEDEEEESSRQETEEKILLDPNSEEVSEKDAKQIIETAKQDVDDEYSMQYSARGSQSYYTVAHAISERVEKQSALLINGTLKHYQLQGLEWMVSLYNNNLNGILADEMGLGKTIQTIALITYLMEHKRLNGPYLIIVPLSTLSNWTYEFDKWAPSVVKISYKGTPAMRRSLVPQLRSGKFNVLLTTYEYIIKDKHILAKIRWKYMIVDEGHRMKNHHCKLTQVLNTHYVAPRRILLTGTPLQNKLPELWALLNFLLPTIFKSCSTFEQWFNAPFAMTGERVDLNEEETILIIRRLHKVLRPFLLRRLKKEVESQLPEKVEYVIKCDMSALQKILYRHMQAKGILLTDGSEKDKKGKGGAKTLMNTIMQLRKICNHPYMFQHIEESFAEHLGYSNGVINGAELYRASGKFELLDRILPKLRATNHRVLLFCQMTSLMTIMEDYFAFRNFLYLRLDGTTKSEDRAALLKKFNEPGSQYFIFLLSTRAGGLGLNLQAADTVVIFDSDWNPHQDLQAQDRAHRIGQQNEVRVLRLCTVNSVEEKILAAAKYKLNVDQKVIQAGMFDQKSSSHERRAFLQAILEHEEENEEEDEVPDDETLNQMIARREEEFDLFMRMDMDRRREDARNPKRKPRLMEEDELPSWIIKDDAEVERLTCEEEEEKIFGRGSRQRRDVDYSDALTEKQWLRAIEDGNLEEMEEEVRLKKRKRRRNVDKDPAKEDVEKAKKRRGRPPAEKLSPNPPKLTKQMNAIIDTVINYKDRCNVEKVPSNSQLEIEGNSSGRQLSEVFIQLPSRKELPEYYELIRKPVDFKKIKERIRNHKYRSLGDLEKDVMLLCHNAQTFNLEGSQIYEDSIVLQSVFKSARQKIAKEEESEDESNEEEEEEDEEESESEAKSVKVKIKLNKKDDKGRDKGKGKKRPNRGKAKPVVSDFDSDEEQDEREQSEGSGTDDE
Sequence of Long-chain-fatty-acid--AMP ligase FadD28 (P9WQ59 whole entry): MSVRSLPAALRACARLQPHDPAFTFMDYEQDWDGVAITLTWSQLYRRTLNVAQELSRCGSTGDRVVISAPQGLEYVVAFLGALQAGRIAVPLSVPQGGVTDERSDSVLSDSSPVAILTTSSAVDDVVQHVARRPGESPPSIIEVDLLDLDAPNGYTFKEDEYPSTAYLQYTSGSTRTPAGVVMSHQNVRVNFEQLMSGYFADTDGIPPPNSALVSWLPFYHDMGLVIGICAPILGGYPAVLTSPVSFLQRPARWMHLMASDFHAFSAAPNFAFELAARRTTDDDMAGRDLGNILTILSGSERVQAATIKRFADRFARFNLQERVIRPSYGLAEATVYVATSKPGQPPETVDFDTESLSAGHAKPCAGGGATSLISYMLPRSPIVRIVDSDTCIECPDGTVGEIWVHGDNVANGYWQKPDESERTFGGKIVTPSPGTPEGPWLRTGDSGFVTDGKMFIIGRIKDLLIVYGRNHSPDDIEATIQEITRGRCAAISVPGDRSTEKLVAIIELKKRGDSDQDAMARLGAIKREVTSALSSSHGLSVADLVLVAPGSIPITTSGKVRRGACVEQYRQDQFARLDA
Sequence of Galanin receptor type 3 (O60755 whole entry): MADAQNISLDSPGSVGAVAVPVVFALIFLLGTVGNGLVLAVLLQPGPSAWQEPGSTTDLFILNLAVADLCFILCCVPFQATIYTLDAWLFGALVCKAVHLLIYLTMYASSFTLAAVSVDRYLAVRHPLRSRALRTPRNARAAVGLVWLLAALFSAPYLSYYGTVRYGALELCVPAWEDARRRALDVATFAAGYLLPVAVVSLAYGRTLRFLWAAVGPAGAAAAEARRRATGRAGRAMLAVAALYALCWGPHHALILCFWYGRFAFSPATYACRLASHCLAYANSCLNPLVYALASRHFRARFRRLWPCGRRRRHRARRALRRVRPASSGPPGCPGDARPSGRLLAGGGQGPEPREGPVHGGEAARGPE
Sequence of Hepatocyte nuclear factor 4-alpha (P41235 whole entry, the tested form may be a part): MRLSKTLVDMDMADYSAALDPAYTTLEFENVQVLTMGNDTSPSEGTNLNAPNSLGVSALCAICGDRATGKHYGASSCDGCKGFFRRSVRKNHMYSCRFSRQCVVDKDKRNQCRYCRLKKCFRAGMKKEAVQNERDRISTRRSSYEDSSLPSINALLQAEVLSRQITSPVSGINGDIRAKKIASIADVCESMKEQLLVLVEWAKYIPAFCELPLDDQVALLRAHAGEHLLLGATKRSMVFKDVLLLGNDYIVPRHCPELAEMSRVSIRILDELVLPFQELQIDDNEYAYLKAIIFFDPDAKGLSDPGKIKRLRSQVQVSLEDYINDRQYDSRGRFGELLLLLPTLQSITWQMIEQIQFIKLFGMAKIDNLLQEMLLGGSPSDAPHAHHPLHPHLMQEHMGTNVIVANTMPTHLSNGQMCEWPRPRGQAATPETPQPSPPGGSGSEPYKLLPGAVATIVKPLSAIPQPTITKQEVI
Sequence of Beta-galactosidase (Q8VNN2 whole entry): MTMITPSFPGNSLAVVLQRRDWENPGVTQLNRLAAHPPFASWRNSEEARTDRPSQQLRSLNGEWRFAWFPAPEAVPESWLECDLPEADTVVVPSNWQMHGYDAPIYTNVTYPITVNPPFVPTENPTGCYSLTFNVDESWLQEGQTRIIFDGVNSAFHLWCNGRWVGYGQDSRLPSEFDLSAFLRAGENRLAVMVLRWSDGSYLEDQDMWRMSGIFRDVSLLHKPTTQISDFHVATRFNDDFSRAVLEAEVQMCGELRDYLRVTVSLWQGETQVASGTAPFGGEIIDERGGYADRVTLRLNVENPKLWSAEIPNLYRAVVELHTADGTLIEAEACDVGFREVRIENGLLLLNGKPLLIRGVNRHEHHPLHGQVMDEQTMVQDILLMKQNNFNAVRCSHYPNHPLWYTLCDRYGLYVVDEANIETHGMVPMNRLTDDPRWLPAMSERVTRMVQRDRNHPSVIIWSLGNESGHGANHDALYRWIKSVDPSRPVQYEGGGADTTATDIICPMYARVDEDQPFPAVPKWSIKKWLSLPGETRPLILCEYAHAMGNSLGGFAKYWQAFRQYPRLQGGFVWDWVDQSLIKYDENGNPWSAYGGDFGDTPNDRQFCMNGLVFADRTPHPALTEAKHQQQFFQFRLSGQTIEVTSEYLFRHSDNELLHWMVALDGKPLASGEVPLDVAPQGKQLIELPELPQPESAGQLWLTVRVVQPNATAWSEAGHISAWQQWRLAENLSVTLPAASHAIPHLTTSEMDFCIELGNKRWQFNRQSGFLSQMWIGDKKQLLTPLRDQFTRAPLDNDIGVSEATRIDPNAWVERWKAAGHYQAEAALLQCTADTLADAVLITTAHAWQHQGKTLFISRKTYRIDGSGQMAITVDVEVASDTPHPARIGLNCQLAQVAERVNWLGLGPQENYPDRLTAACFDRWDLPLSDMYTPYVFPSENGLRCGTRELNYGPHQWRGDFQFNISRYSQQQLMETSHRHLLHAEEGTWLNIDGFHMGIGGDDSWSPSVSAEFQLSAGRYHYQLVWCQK
Sequence of Fructose-bisphosphate aldolase (P9WQA3 whole entry): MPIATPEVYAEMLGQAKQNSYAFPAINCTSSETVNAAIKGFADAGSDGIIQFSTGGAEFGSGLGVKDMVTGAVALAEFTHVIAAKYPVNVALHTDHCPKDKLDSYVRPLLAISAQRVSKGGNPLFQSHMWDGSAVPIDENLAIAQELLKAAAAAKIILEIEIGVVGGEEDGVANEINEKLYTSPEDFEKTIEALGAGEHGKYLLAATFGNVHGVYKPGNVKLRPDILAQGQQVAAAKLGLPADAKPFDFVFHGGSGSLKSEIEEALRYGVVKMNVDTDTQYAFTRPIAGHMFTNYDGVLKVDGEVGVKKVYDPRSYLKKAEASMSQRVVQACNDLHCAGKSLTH

Compound: Nc1ncnc2c1ncn2[C@@H]1O[C@H](CNCc2ccc(OCC(=O)Nc3nccs3)cc2)[C@@H](O)[C@H]1O
- AC50 [1]: 32.3 µM (active)

Compound: Cc1ccc(-n2nc3c(N4CCC(C(=O)NCc5ccccc5C)CC4)nnc(C)c3c2C)cc1
- CC50 [2]: 27.8 µM (active)
- IC50 (Beta Lactamase): 16.2 µM (inactive)
- IC50 [3]: 8.76 µM (active)

Compound: CSc1nc(N)c(C#N)c(-c2ccccc2Cl)c1C#N
- IC50 (Galanin receptor type 3): 7.09 µM (active)
- EC50 (cells): > 29.9 µM (inactive)

Compound: NC(=O)c1cn(-c2ccccc2)nc1-c1cc2ccccc2oc1=O
- IC50 (Galanin receptor type 3): 13 µM (inactive)
- EC50 (cells): > 29.9 µM (inactive)

Compound: CCN(CC)CCNc1ccc(CO)c2oc3ccccc3c(=O)c12
- IC50 [4]: 28.4 µM (inactive)
- AC50 [5]: 18.7 µM (active)
- IC50 [6]: 22.3 µM (inactive)

Compound: Oc1nc2ccccc2nc1-c1cccs1
- EC50 [7]: > 91.1 µM (inactive)

Compound: COc1ccc(/C=C\C(=O)CC(O)(c2ccccc2)C(F)(F)F)cc1 (stereo not given)
- IC50 [8]: 3.93 µM (active)

Compound: O=c1[nH]c2ccccc2nc1-c1cccs1
- EC50 [9]: > 91.1 µM (inactive)

Compound: COC(=O)Nc1nnc(-c2ccccc2OC)s1
- IC50 [10]: 1.9 µM (active)

Compound: COc1ccc(C(=O)Nc2cccc(NC(=O)c3cccs3)c2)cc1
- AC50 [11]: 4.26 µM (active)

Compound: CC(=O)c1cccc(-c2cnc3c(NC=O)cc(-c4ccc(N5CCN(C)CC5)cc4)cn23)c1
- EC50 [7]: > 91.2 µM (inactive)
- EC50 [9]: > 30.4 µM (inactive)

Compound: Cc1c(C(=O)NNC(=O)c2ccccc2O)oc2ccccc12
- IC50 (Albumin): > 94 µM (inactive)

Compound: O=C(c1cc2ccccc2o1)N1CCN(S(=O)(=O)c2ccc(F)c(F)c2F)CC1
- IC50 (Beta-galactosidase): > 80 µM (inactive)

Compound: O=C(NNC(=S)Nc1ccc(Cl)cc1)c1ccccc1
- IC50 [12]: > 122 µM (inactive)

Compound: CCn1c(=O)c(=O)n(CC)c2cc(S(=O)(=O)Nc3cc(C)ccc3C)ccc21
- AC50 [11]: 13.6 µM (active)

Compound: CC(C)(C)NC(=O)C(c1ccccc1F)n1c(=O)c(-c2ccco2)nc2ccccc21 (stereo not given)
- IC50 [8]: 1.85 µM (active)

Compound: CC(C)CCN=C(S)Nc1ccc2nc3n(c(=O)c2c1)CCCCC3
- AC50 [1]: 39.4 µM (active)

Compound: O=C(Nc1cc(F)cc(F)c1)c1ccc(NCCc2ccccc2)c([N+](=O)[O-])c1
- EC50 [13]: > 99 µM (inactive)
- IC50 [4]: 14 µM (active)
- EC50 [14]: 88.4 µM (inactive)
- IC50 [6]: 26.2 µM (inactive)

Compound: Cc1ccc(C2CC(C(F)(F)F)n3nc(C(=O)NCc4ccco4)cc3N2)cc1 (stereo not given)
- AC50 [15]: 1.94 µM (active)

Compound: COc1ccc(CNC(=O)NCCc2c[nH]c3ccccc23)cc1
- AC50 [15]: 1.87 µM (active)

Compound: C/N=C(\S)NNC(=O)c1cccn(Cc2cccc(Cl)c2)c1=O
- IC50 (Albumin): > 94.1 µM (inactive)

Compound: CCCCn1c(NS(=O)(=O)c2ccc(C)cc2)c(C(=O)OCC)c2nc3ccccc3nc21
- IC50 [16]: > 128 µM (inactive)

Compound: CCCCCCNc1cc2n(c(=O)n1)CCc1cc(OC)c(OC)cc1-2
- AC50 [17]: 101 µM (active)

Compound: CN1Cc2c(N3CCOCC3)nc3sc(C#N)c(N)c3c2CC1(C)C
- IC50 [10]: 1.06 µM (active)

Compound: COc1ccc([C@H]2CC(=O)C=C(C#CC(C)(C)C)C2)cc1
- IC50 (Beta-galactosidase): > 80 µM (inactive)

Compound: N#Cc1ccccc1CSc1ccc(-c2nc3ccccc3[nH]2)cn1
- EC50 [18]: > 79.4 µM (not active)
- EC50 [19]: > 79.4 µM (inactive)
- IC50 [20]: 26.5 µM (inactive)
- EC50 [21]: > 79.4 µM (not active)

Compound: O=C(COC(=O)c1ccc(Cl)nc1)Nc1nnc(-c2ccccc2)o1
- AC50 [17]: 115 µM (active)
